Measured values as given in patent US9029168B2, “Use and making of biosensors utilizing antimicrobial peptides for highly sensitive biological monitoring” (priority 2010, dated 2015).

Experiments:
[1] = tested on: E. coli O157:H7 cells; experiment: Impedance spectroscopy of magainin-functionalized interdigitated microelectrode array, sensitivity measurements; assay type: binding; settings: E. coli O157:H7 10^7 CFU/mL; response at 10 Hz
Experimental: FIG. 2 schematically outlines the sensing platform. AMPs are first immobilized on microfabricated interdigitated gold electrodes, anode 10 and cathode 12 (FIG. 2A). Magainin I was acquired with an additional cysteine residue at the C-terminus (FIG. 2B), allowing for facile and site specific covalent attachment to the gold electrodes. Next, heat-killed bacterial cells were injected and incubated with the AMP-modified electrodes. If the bacteria are recognized by the AMPs, binding will occur (FIG. 2C), leading to dielectric property changes which can be monitored via a spectrum analyzer. The impedance was measured over a frequency range of 10 Hz to 100 kHz.
Sensitivity of microbial detection is a key determinant for utility of the biosensor. To this end, the sensitivity of the magainin-functionalized microelectrode array in detecting bacterial cells was determined using impedance spectroscopy. […] A “blank” device with no immobilized AMPs was also tested for comparison. […] As the frequency increases, the contribution to the impedance from the bacterial cells decreases, leaving only the dielectric relaxation of small dipoles including water molecules in the buffer solution to affect the measured impedance. FIG. 3B depicts the impedance change at the fixed frequency of 10 Hz. […]

[2] = tested on: Listeria monocytogenes; experiment: Selectivity of AMP-functionalized biosensor (impedance at 10 Hz, fluorescent microscopy), Gram-negative pathogens relative to Listeria; assay type: binding; settings: all 10^7 CFU/mL
Experimental: (§1) As a next step, the selectivity of the AMP-functionalized biosensors toward various bacterial species was determined. Specifically, the binding behavior of AMPs was probed toward: 1) Gram-negative pathogenic E. coli O157:H7, 2) the non-pathogenic E. coli strain ATCC 35218, 3) Gram-negative pathogenic Salmonella typhimurium, and Listeria monocytogenes, a Gram-positive pathogen. Collectively, these studies elucidate the matrix of selectivity as it depends on Gram-negative vs. Gram-positive species, and pathogenic vs. non-pathogenic strains. […]
(§2) Stock solutions of propidium iodide (PI), nucleic acid stain (Molecular probes, Eugene, Oreg.) were made from solid form by dissolving PI (MW=668.4) in deionized water at 1 mg/mL (1.5 mM) and stored at 4° C., protected from light. […] The binding pattern of the different bacterial cells was imaged using a Zeiss axiovert inverted microscope and recorded with a Zeiss axiocam digital camera. Surface density of the bound bacterial cells was analyzed and plotted using imageJ software from NIH.
(§3) Dielectric property changes due to AMP-bacteria interactions were probed using a Fast-Fourier Transform (FFT) spectrum analyzer. […] For real-time measurements, the impedance vs. time data was recorded while buffer solutions or different dilutions of bacterial solutions flowed through the microfluidic channel. […]

[3] = tested on: Salmonella typhimurium; experiment: Selectivity of AMP-functionalized biosensor, pathogenic E. coli relative to Salmonella; assay type: binding; settings: 10^7 CFU/mL
Experimental: as §1, §2, §3

[4] = tested on: pathogenic E. coli cells; experiment: Real-time detection in microfluidic flow cell, impedance response; assay type: binding; settings: flow rate 5 μL/min
Experimental: To simulate the use of the AMP microelectrodes in everyday applications, such as direct water sampling, the biosensor response tested to perform in real time, as shown in FIG. 8. First, a microfluidic cell was bonded to the interdigitated biosensor chip (FIG. 8A), such that the electrodes were perpendicular to the direction of the sample flow (FIG. 8B). Next, fluid was injected using a syringe pump connected to the inlet port, and allowed to flow through to the outlet port, at a flow rate of 100 μL/min. The flow cell was first flushed with buffer to establish a baseline. Various dilutions (10^4-10^7 CFU/mL) of pathogenic E. coli cells in PBS were then injected to the channel at a reduced flow rate of 5 μL/min for 30 min. […] Simultaneously, the impedance response was continuously monitored during the sample flow-through process (FIG. 8D). […] This difference between detection in flowing and static water sample has also been reported in fluorescent based assays. This difference is attributed to the opposing effects of shear and mixing on the binding kinetics.
Interdigitated capacitive electrodes were microfabricated on 4″ p-type silicon wafers (boron-doped, <100>, 10-16 Ω-cm, 550 μm thick). A 1 μm thick silicon dioxide layer was deposited on the wafer by plasma enhanced chemical vapor deposition (PECVD) to form electrical insulation between the Si substrate and the capacitive electrodes. S1813 photoresist was patterned using photolithography, followed by electron-beam evaporation of 10 nm Ti and 300 nm Au under high vacuum conditions. The titanium layer helps to provide adhesion of the Au to the SiO2. The IMA was then finally developed by lift-off patterning of the metallic layer in acetone with ultrasonic activation. […]
as §3

[5] = tested on: E. coli O157:H7 bacterial cell; experiment: Single bacterium detection on graphene sensors functionalized with antimicrobial peptide, simultaneous resistance and optical data; assay type: binding; settings: compared to non-functionalized graphene
Source text: Simultaneous collection of electrical and fluorescence data from the graphene sensors in the presence of fluorescently labeled E. coli cells clearly indicate that the change in the resistance recorded corresponds to the binding and unbinding of the bacterial cell from the graphene surface. The resistance of the graphene sensor remains at the baseline value until the bacterial cell diffuses to the sensor surface and drops down by approximately 0.6 percentage of the original, once the bacterial cell binds to the graphene surface.
The resistance of the sensor decreases from the baseline value up on the binding of the negatively charged bacterial cell and returns back to the initial value up on unbinding, indicating a p-type behavior of the graphene transducer. […] In order to determine the effect of the immobilized AMPs on the binding/unbinding properties simultaneous resistance and optical data were recorded on graphene sensors functionalized with antimicrobial peptides. […]
Electrical measurements for the detection of single bacteria binding measurements were performed with a lock-in detection system using Stanford Research Systems 810 DSP lock-in amplifier. […] The resistance of the graphene sensor was monitored continuously in the presence of analyte sample of various dilutions of bacterial cells. […]

[6] = tested on: Helicobacter pylori; settings: cited from earlier work
[7] = tested on: Staphylococcus aureus; settings: cited from earlier work
[8] = tested on: Escherichia coli; settings: cited from earlier work
[9] = tested on: methicillin resistant strains of S. aureus; settings: cited from earlier work

With GIGKFLHSAGKFGKAFVGEIMKS [magainin I] the “response of the biosensor towards target cells with increasing concentration of immobilized magainin” value [1] was “increase monotonically”, the “impedance difference, pathogenic Gram-negative E. coli and Salmonella relative to Gram-positive Listeria” value [2] was “two” and the “response for pathogenic E. coli relative to Salmonella” value [3] was “slightly larger response”. For the same substance, the “time to measurable response relative to the control sample, all samples” value ([4]; 10^4-10^7 CFU/mL in PBS) was no more than 5 min, the “time to saturation of responses” value ([4]; 10^4-10^7 CFU/mL in PBS) was “ca. 20 min” and the “time to response, highest concentration sample” value [4] was no more than 30 s.

In the case of Odorranin-HP [O-HP], the “effect of immobilized peptide on unbinding of bacterial cells” value [5] is listed as “slows the unbinding kinetics”, the MIC [6] is listed as 20 µg/mL and the MIC [7] is listed as 5 µg/mL. The MIC [8] was 30 µg/mL and the antimicrobial activity [9] was “exert antimicrobial activity”.
